Assay results taken from patent publication US20050009924A1 (priority 2003, published 2005).

Experiments:
[1] = MTT relative viability, PhTERT-SEAP (H1299) cells; settings: human
[2] = test system: iron-induced lipid peroxidation in rat brain homogenates; assay: Iron-induced lipid peroxidation in rat brain homogenates; settings: for Inhibition of LP(10 mM): mean percent inhibition (Table 3); for LP (%) (10 mM): relative percentage of inhibition (Table 1)
[3] = test system: transcriptional activity of hTERT; assay: SEAP reporter assay of hTERT expression, PhTERT-SEAP (H1299); type: cell-based, human; settings: Homo sapiens, NCI-H1299, H1299, read-out: Relative SEAP activity (%)
In short: (§1)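 SEAP activity, read as rate of 405 nm absorbance rise with 12 mM p-nitrophenyl phosphate in diethanolamine/MgCl2/homoarginine buffer after 65 °C, 10 min heat inactivation, reports hTERT or CMV promoter activity. G418-selected stable H1299 or hTERT-BJ1 reporter lines were exposed to drug for 24 h.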

rat glioma C6 cells = assay: Cytotoxicity assay (XTT colorimetric), C6 cells; type: cell-based; settings: Rattus norvegicus, C6; 48 h of drug exposure
[4] = MTT relative viability, PhTERT-SEAP (hTERT-BJ1) cells; settings: human; for viability at 48 h, 1.9 µM / viability at 48 h, 19 µM / viability at 48 h, 190 µM: hTERT-BJ1 cells, stable PhTERT-SEAP reporter clone
human hepatoma G2 cells = assay: Cytotoxicity assay (XTT colorimetric), Hep G2; type: cell-based; settings: Homo sapiens, HepG2; 48 h of drug exposure
[5] = test system: transcriptional activity of hTERT; assay: SEAP reporter assay of hTERT expression, PhTERT-SEAP (hTERT-BJ1); type: cell-based, human; settings: Homo sapiens, hTERT-BJ1, read-out: Relative SEAP activity (%)
In short: as §1

Q: What does the source list for O=C(Oc1cccc2c1C(=O)c1cccc(OC(=O)c3ccccc3Cl)c1C2=O)c1ccccc1Cl?
A: viability at 48 h, 1.9 µM [1]: 74 ± 5.3%; viability at 48 h, 19 µM [1]: 34 ± 3.4%; viability at 48 h, 190 µM [1]: 30 ± 1.4%; Inhibition of LP(10 mM) ([2]; 10 mM): 5 ± 0.5%; activity at 1.9 µM [3]: 93 ± 4.4%; activity at 19 µM [3]: 101 ± 4.9%; activity at 190 µM [3]: 97 ± 5.3%; IC50 (rat glioma C6 cells): 40.7 ± 4.7 µM; viability at 48 h, 1.9 µM [4]: 107 ± 5.5%; viability at 48 h, 19 µM [4]: 92 ± 4.3%; viability at 48 h, 190 µM [4]: 40 ± 4%; IC50 (human hepatoma G2 cells): 0.04 ± 0.01 µM; activity at 1.9 µM [5]: 120 ± 10.5%; activity at 19 µM [5]: 116 ± 3.7%; activity at 190 µM [5]: 97 ± 10.8%

Q: Which viability at 48 h, 1.9 µM [1] does the source give for O=C(Oc1cccc2c1C(=O)c1cccc(OC(=O)c3cccc(Cl)c3)c1C2=O)c1cccc(Cl)c1 here?
A: 98 ± 3.9%

Q: And the viability at 48 h, 19 µM [1]?
A: 88 ± 7.2%

Q: What about the viability at 48 h, 190 µM [1] of the same molecule?
A: 46 ± 3.5%

Q: What about the “Inhibition of LP(10 mM)” value ([2]; 10 mM) of the same molecule?
A: 1 ± 0.1%

Q: What about the activity at 1.9 µM [3] of the same molecule?
A: 83 ± 5.7%

Q: What about the activity at 19 µM [3] of the same molecule?
A: 92 ± 8.1%

Q: And the activity at 190 µM [3]?
A: 81 ± 2.5%

Q: And the IC50 (rat glioma C6 cells)?
A: 25.1 ± 2.8 µM

Q: What about the viability at 48 h, 1.9 µM [4] of the same molecule?
A: 101 ± 2.3%

Q: What about the viability at 48 h, 19 µM [4] of the same molecule?
A: 80 ± 6.7%

Q: And the viability at 48 h, 190 µM [4]?
A: 44 ± 6%

Q: And the IC50 (human hepatoma G2 cells)?
A: 15.1 ± 1.9 µM

Q: What about the activity at 1.9 µM [5] of the same molecule?
A: 154 ± 23%

Q: And the activity at 19 µM [5]?
A: 152 ± 15.8%

Q: And the activity at 190 µM [5]?
A: 91 ± 25.2%

Q: Which viability at 48 h, 1.9 µM [1] does the source give for O=C(Oc1cccc2c1C(=O)c1cccc(OC(=O)c3ccc(Cl)cc3)c1C2=O)c1ccc(Cl)cc1 here?
A: 91 ± 10%

Q: What about the viability at 48 h, 19 µM [1] of the same molecule?
A: 57 ± 1.8%

Q: And the viability at 48 h, 190 µM [1]?
A: 31 ± 1%

Q: And the “Inhibition of LP(10 mM)” value ([2]; 10 mM)?
A: 2 ± 0.2%

Q: What about the activity at 1.9 µM [3] of the same molecule?
A: 106 ± 4.5%

Q: And the activity at 19 µM [3]?
A: 106 ± 4.9%

Q: What about the activity at 190 µM [3] of the same molecule?
A: 97 ± 4.9%

Q: What about the IC50 (rat glioma C6 cells) of the same molecule?
A: 38.6 ± 3.5 µM

Q: And the viability at 48 h, 1.9 µM [4]?
A: 111 ± 6.5%

Q: What about the viability at 48 h, 19 µM [4] of the same molecule?
A: 89 ± 14.3%

Q: And the viability at 48 h, 190 µM [4]?
A: 48 ± 9%

Q: And the IC50 (human hepatoma G2 cells)?
A: 48.1 ± 4.5 µM

Q: What about the activity at 1.9 µM [5] of the same molecule?
A: 136 ± 5.7%

Q: What about the activity at 19 µM [5] of the same molecule?
A: 123 ± 6.2%

Q: And the activity at 190 µM [5]?
A: 107 ± 6%

Q: What does the source list for O=C1c2cccc(SCC(O)CO)c2C(=O)c2cccc(SCC(O)CO)c21 (centres unmarked)?
A: viability at 48 h, 2.4 µM [1]: 102 ± 6.2%; viability at 48 h, 24 µM [1]: 103 ± 4.2%; viability at 48 h, 240 µM [1]: 83 ± 18.2%; LP (%) (10 mM) ([2]; 10 mM): 83 ± 1.1%; activity at 2.4 µM ([3]; 2.4 μM): 105 ± 21.6%; activity at 24 µM ([3]; 24 μM): 90 ± 5.7%; activity at 240 µM ([3]; 240 μM): 81 ± 6.1%; IC50 (rat glioma C6 cells): 38.5 ± 1.5 µM; viability at 48 h, 2.4 µM [4]: 98 ± 10.7%; viability at 48 h, 24 µM [4]: 86 ± 5.5%; viability at 48 h, 240 µM [4]: 79 ± 8.2%; IC50 (human hepatoma G2 cells): 34.3 ± 1.8 µM; activity at 2.4 µM ([5]; 2.4 μM): 144 ± 16.9%; activity at 24 µM ([5]; 24 μM): 136 ± 10%; activity at 240 µM ([5]; 240 μM): 142 ± 9.1%

Q: For Cc1c(C)c2c(c(C)c1O)CC[C@@](C)(CCC[C@H](C)CCC[C@H](C)CCCC(C)C)O2 [(+)−α-Tocopherol, reference compound], which “Inhibition (%)” value ([2]; 0.01 mM) is on record?
A: 0%

Q: What about the “Inhibition (%)” value ([2]; 0.1 mM) of the same molecule?
A: 0%

Q: What about the “Inhibition (%)” value ([2]; 1 mM) of the same molecule?
A: 55 ± 1.7%

Q: What about the “Inhibition (%)” value ([2]; 10 mM) of the same molecule?
A: 100%

Q: What about the “Inhibition of LP(10 mM)” value ([2]; 10 mM) of the same molecule?
A: >100%

Q: What about the “LP (%) (10 mM)” value ([2]; 10 mM) of the same molecule?
A: >100%

Q: Which “Inhibition of LP(10 mM)” value ([2]; 10 mM) does the source give for O=C1c2cccc(O)c2C(=O)c2cccc(O)c21 [Anthrarufin, 1,5-dihydroxyanthraquinone, reference compound] here?
A: −36 ± 1.1^ %

Q: What about the “LP (%) (10 mM)” value ([2]; 10 mM) of the same molecule?
A: −36 ± 1.9%
